Species on record: Rattus norvegicus
Test: Open TG-GATES - Regimen: Daily Repeat
Format: toxicity, organism-based, Sprague-Dawley
Design: regimen Daily Repeat, gender Male, age 6 weeks
Conditions: in vivo, po, 100 mg/kg, route gavage, dose level Low; for APTT / Bas / Eos / Fbg / Hb / Ht / Lym / MCH / MCHC / MCV / Mono / Neu / PT / Plat / RBC / Ret / WBC: tissue Blood; for KIDNEY_L / KIDNEY_R / KIDNEY_TOTAL: tissue Kidney; for LIVER: tissue Liver; for A/G / ALP / ALT / AST / BUN / CRE / Ca / Cl / DBIL / GLC / IP / K / LDH / Na / PL / RALB / TBIL / TC / TG / TP / gamma-GTP: tissue Plasma

CC(C)(S)[C@@H](N)C(=O)O [PENICILLAMINE]
TERMINAL_BW (72 h, time 3 day): 236.4 g | APTT (72 h, time 3 day): 16.9 s | Bas (72 h, time 3 day): 0% | Eos (72 h, time 3 day): 1% | Fbg (72 h, time 3 day): 294.8 mg/dL | Hb (72 h, time 3 day): 13.7 g/dL | Ht (72 h, time 3 day): 41.6% | Lym (72 h, time 3 day): 78.8% | MCH (72 h, time 3 day): 20.9 pg | MCHC (72 h, time 3 day): 33% | MCV (72 h, time 3 day): 63.3 fL | Mono (72 h, time 3 day): 2.8% | Neu (72 h, time 3 day): 16.6% | PT (72 h, time 3 day): 14.1 s | Plat (72 h, time 3 day): 122 x10_4/uL | RBC (72 h, time 3 day): 658.2 x10_4/ul | Ret (72 h, time 3 day): 7.4% | WBC (72 h, time 3 day): 84.7 x10_2/uL | KIDNEY_L (72 h, time 3 day): 1 g | KIDNEY_R (72 h, time 3 day): 1 g | KIDNEY_TOTAL (72 h, time 3 day): 1.9 g | LIVER (72 h, time 3 day): 10.8 g | A/G (72 h, time 3 day): 0.9 | ALP (72 h, time 3 day): 1491 IU/L | ALT (72 h, time 3 day): 40.2 IU/L | AST (72 h, time 3 day): 69.8 IU/L | BUN (72 h, time 3 day): 13 mg/dL | CRE (72 h, time 3 day): 0.2 mg/dL | Ca (72 h, time 3 day): 10.8 mg/dL | Cl (72 h, time 3 day): 106.6 meq/L | DBIL (72 h, time 3 day): 0.014 mg/dL | GLC (72 h, time 3 day): 183.8 mg/dL | IP (72 h, time 3 day): 7 mg/dL | K (72 h, time 3 day): 4.1 meq/L | LDH (72 h, time 3 day): 85 IU/L | Na (72 h, time 3 day): 143.8 meq/L | PL (72 h, time 3 day): 156 mg/dL | RALB (72 h, time 3 day): 2.7 g/dL | TBIL (72 h, time 3 day): 0.028 mg/dL | TC (72 h, time 3 day): 80.8 mg/dL | TG (72 h, time 3 day): 114.8 mg/dL | TP (72 h, time 3 day): 5.7 g/dL | gamma-GTP (72 h, time 3 day): 1.2 IU/L | TERMINAL_BW ([…], time 7 day): 276.9 g | TERMINAL_BW ([…], time 14 day): 325.3 g | TERMINAL_BW ([…], time 28 day): 410.3 g | APTT ([…], time 7 day): 17.9 s | Bas ([…], time 7 day): 0.2% | Eos ([…], time 7 day): 1% | Fbg ([…], time 7 day): 305.6 mg/dL | Hb ([…], time 7 day): 13.9 g/dL | Ht ([…], time 7 day): 42.4% | Lym ([…], time 7 day): 80.6% | MCH ([…], time 7 day): 20.7 pg | MCHC ([…], time 7 day): 32.9% | MCV ([…], time 7 day): 63 fL | Mono ([…], time 7 day): 2.4% | Neu ([…], time 7 day): 14.6% | PT ([…], time 7 day): 14.2 s | Plat ([…], time 7 day): 127.2 x10_4/uL | RBC ([…], time 7 day): 674.2 x10_4/ul | Ret ([…], time 7 day): 5.7% | WBC ([…], time 7 day): 102.7 x10_2/uL | APTT ([…], time 14 day): 17.2 s | Bas ([…], time 14 day): 0% | Eos ([…], time 14 day): 1% | Fbg ([…], time 14 day): 300.8 mg/dL | Hb ([…], time 14 day): 14.8 g/dL | Ht ([…], time 14 day): 43.6% | Lym ([…], time 14 day): 82.4% | MCH ([…], time 14 day): 20.7 pg | MCHC ([…], time 14 day): 34% | MCV ([…], time 14 day): 60.9 fL | Mono ([…], time 14 day): 1.8% | Neu ([…], time 14 day): 14% | PT ([…], time 14 day): 13.8 s | Plat ([…], time 14 day): 111.4 x10_4/uL | RBC ([…], time 14 day): 716 x10_4/ul | Ret ([…], time 14 day): 3.9% | WBC ([…], time 14 day): 83.6 x10_2/uL | APTT ([…], time 28 day): 18.8 s | Bas ([…], time 28 day): 0% | Eos ([…], time 28 day): 1.6% | Fbg ([…], time 28 day): 313 mg/dL | Hb ([…], time 28 day): 16.2 g/dL | Ht ([…], time 28 day): 46.8% | Lym ([…], time 28 day): 82.8% | MCH ([…], time 28 day): 20 pg | MCHC ([…], time 28 day): 34.6% | MCV ([…], time 28 day): 57.7 fL | Mono ([…], time 28 day): 1.8% | Neu ([…], time 28 day): 13% | PT ([…], time 28 day): 14.1 s | Plat ([…], time 28 day): 101.2 x10_4/uL | RBC ([…], time 28 day): 812.4 x10_4/ul | Ret ([…], time 28 day): 2.2% | WBC ([…], time 28 day): 93.4 x10_2/uL | KIDNEY_L ([…], time 7 day): 1.1 g | KIDNEY_R ([…], time 7 day): 1.1 g | KIDNEY_TOTAL ([…], time 7 day): 2.3 g | KIDNEY_L ([…], time 14 day): 1.3 g | KIDNEY_R ([…], time 14 day): 1.3 g | KIDNEY_TOTAL ([…], time 14 day): 2.6 g | KIDNEY_L ([…], time 28 day): 1.4 g | KIDNEY_R ([…], time 28 day): 1.4 g | KIDNEY_TOTAL ([…], time 28 day): 2.8 g | LIVER ([…], time 7 day): 12.9 g | LIVER ([…], time 14 day): 14.2 g | LIVER ([…], time 28 day): 15.7 g | A/G ([…], time 7 day): 0.9 | ALP ([…], time 7 day): 1699 IU/L | ALT ([…], time 7 day): 43.4 IU/L | AST ([…], time 7 day): 66.2 IU/L | BUN ([…], time 7 day): 17 mg/dL | CRE ([…], time 7 day): 0.2 mg/dL | Ca ([…], time 7 day): 10.9 mg/dL | Cl ([…], time 7 day): 104.2 meq/L | DBIL ([…], time 7 day): 0.01 mg/dL | GLC ([…], time 7 day): 184 mg/dL | IP ([…], time 7 day): 7.5 mg/dL | K ([…], time 7 day): 3.9 meq/L | LDH ([…], time 7 day): 80.6 IU/L | Na ([…], time 7 day): 142.2 meq/L | PL ([…], time 7 day): 167.8 mg/dL | RALB ([…], time 7 day): 2.7 g/dL | TBIL ([…], time 7 day): 0.028 mg/dL | TC ([…], time 7 day): 85.2 mg/dL | TG ([…], time 7 day): 116.8 mg/dL | TP ([…], time 7 day): 5.8 g/dL | gamma-GTP ([…], time 7 day): 1.2 IU/L | A/G ([…], time 14 day): 0.9 | ALP ([…], time 14 day): 1443.4 IU/L | ALT ([…], time 14 day): 42.8 IU/L | AST ([…], time 14 day): 61.6 IU/L | BUN ([…], time 14 day): 15 mg/dL | CRE ([…], time 14 day): 0.2 mg/dL | Ca ([…], time 14 day): 10.9 mg/dL | Cl ([…], time 14 day): 104.2 meq/L | DBIL ([…], time 14 day): 0.012 mg/dL | GLC ([…], time 14 day): 194.4 mg/dL | IP ([…], time 14 day): 6.7 mg/dL | K ([…], time 14 day): 3.9 meq/L | LDH ([…], time 14 day): 89 IU/L | Na ([…], time 14 day): 142.4 meq/L | PL ([…], time 14 day): 178.2 mg/dL | RALB ([…], time 14 day): 2.8 g/dL | TBIL ([…], time 14 day): 0.028 mg/dL | TC ([…], time 14 day): 85 mg/dL | TG ([…], time 14 day): 171.6 mg/dL | TP ([…], time 14 day): 6 g/dL | gamma-GTP ([…], time 14 day): 1 IU/L | A/G ([…], time 28 day): 0.9 | ALP ([…], time 28 day): 1085 IU/L | ALT ([…], time 28 day): 35 IU/L | AST ([…], time 28 day): 57.2 IU/L | BUN ([…], time 28 day): 16.6 mg/dL | CRE ([…], time 28 day): 0.3 mg/dL | Ca ([…], time 28 day): 10.9 mg/dL | Cl ([…], time 28 day): 105.8 meq/L | DBIL ([…], time 28 day): 0.01 mg/dL | GLC ([…], time 28 day): 179.4 mg/dL | IP ([…], time 28 day): 6.2 mg/dL | K ([…], time 28 day): 3.9 meq/L | LDH ([…], time 28 day): 58 IU/L | Na ([…], time 28 day): 144 meq/L | PL ([…], time 28 day): 159.8 mg/dL | RALB ([…], time 28 day): 2.9 g/dL | TBIL ([…], time 28 day): 0.066 mg/dL | TC ([…], time 28 day): 77.2 mg/dL | TG ([…], time 28 day): 139.2 mg/dL | TP ([…], time 28 day): 6.3 g/dL | gamma-GTP ([…], time 28 day): 1.2 IU/L
